Each structure is given as a SMILES string.

A short description of the data set: gradient 5% acetonitrile 3 min, to 50% in 2 min, to 85% in 15 min, held 3 min, 100 µL/min. The conditions noted are these: column: Zorbax Extend-C18 2.1 x 50 mm; eluents: water / acetonitrile, 0.1% formic acid. In outline: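 Each retention time is based on an adduct peak selected computationally and verified by manual inspection. Measurements used HPLC–quadrupole time-of-flight mass spectrometry in positive and negative ionization mode on mixtures of ~100 pure standards. Chromatography ran on a Zorbax Extend-C18 column (2.1 × 50 mm, 1.8 μm) at 100 μL/min with water and acetonitrile, each containing 0.1% formic acid, and dead and dwell volumes of 40 μL and 900 μL.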
As to `CCOc1ccc(N2C(=O)N[C@@H]3C[C@]2(C)Oc2ccc(OC)cc23)cc1`, the RP-LC retention time came to 864 s.

The compound `COc1ccc(-c2csc(NC(=O)Cn3c(=O)oc4cc(Br)ccc43)n2)cc1` displayed an RP-LC retention time of 1070 s.

Compound `CC(C)c1ccc(NC(=O)C2CC(=O)N(c3cccc(NC(=O)C4CCC4)c3)C2)cc1` (centres undefined) displayed an RP-LC retention time of 929 s.

For `CCOC(=O)c1cccc(NC(=O)NC2CCN(c3ccccc3)C2=O)c1` (centres undefined), the RP-LC retention time worked out at 683 s.

In the case of `Cc1cccc(N2CCN(c3ccc4cc(S(=O)(=O)N5CCC(C)CC5)ccc4n3)CC2C)c1` (centres undefined), the RP-LC retention time amounted to 1200 s.

`CCn1c(=O)c(N2CCC(C(=O)NC3CCCCCCC3)CC2)nc2cccnc21` registered an RP-LC retention time of 1080 s.

In the case of `Cc1cc([N+](=O)[O-])ccc1NC(=O)C(=O)NCc1cccs1`, the RP-LC retention time turned out to be 864 s.

As to `CCOc1ccccc1NC(=O)N1CCC2(C1)C(=O)N(C)c1ccc(OC)cc12` (centres undefined), the RP-LC retention time was 882 s.

The compound `COc1ccc(OC)c(NC(=O)N2CCc3c(c(C(=O)N4CCCC4)nn3C)C2)c1` showed an RP-LC retention time of 718 s.

As for `Cc1ccc(NC(=O)Cn2c(C)nc3c(sc4nc(-c5ccccc5)ccc43)c2=O)cc1F`, the RP-LC retention time is 1110 s.

`CCC(=O)Nc1ccc(CCc2nc3ccc(C(=O)NCC4CCCO4)cc3[nH]2)cc1` (centres undefined) returned an RP-LC retention time of 592 s.

Turning to `CCCNC(=O)C1CCCN(c2ccc(SCC(=O)Nc3ccc(C)c(Cl)c3)nn2)C1` (centres undefined), the RP-LC retention time was determined as 748 s.

`Cn1cnc(S(=O)(=O)N2CCC(Cc3nncn3-c3ccccc3)CC2)c1` had an RP-LC retention time of 629 s.

Turning to `Cc1ccc(C)c(S(=O)(=O)N2CCc3c(c(-c4nnc(-c5ccccc5F)o4)nn3C)C2)c1`, the RP-LC retention time turned out to be 1010 s.

`CNC(=O)N1CCCC(c2cccc(C(=O)NCc3ccc(C(F)(F)F)cc3)c2)C1` (centres undefined) yielded an RP-LC retention time of 853 s.

`CCn1cnc(S(=O)(=O)N2CCCC(C(=O)Nc3ccccc3)C2)c1` (centres undefined) had an RP-LC retention time of 726 s.

Take `Cc1cc2nn(CC(=O)N(C)c3ccccc3)c(=O)n2c(Nc2ccccc2C)n1`: the RP-LC retention time came out at 922 s.

In the case of `O=C(Cc1csc(-c2ccccc2)n1)Nc1nc(-c2ccccc2)cs1`, the RP-LC retention time is 1130 s.

`CCc1ccc(CNC(=O)CCC(=O)N2CCCn3nc(C)cc32)cc1` registered an RP-LC retention time of 666 s.

In turn, `CCn1ccc(C(=O)N2CCC(c3nc(-c4ccncc4)no3)C2)n1` (centres undefined) yielded an RP-LC retention time of 640 s.

For the compound `COc1ccc(Cl)cc1NC(=O)c1c(N)c(C(=O)c2cccs2)n2ccccc12`, the RP-LC retention time was determined as 1140 s.

Compound `CCN1CCN(Cc2ccc(-c3cc4c(N[C@H](C)c5ccccc5)ncnc4[nH]3)cc2)CC1` had an RP-LC retention time of 628 s.

As to `CN(C)[C@@H]1CN(C(=O)CC2CCCCC2)CC[C@@H]1CO`, the RP-LC retention time worked out at 615 s.

As to `CN(C)c1ccc(CNC(=O)Cn2cnc3nc4c(cc3c2=O)CCCC4)cc1`, the RP-LC retention time turned out to be 586 s.

Consider `O=S(=O)(c1cc(-c2nnc(C3CCC3)o2)co1)N1CCc2ccccc2C1`, for which the RP-LC retention time was determined as 1030 s.

In the case of `CCc1c(C(=O)O)nnn1-c1ccc(Cl)cc1`, the RP-LC retention time worked out at 748 s.

On to `COc1cc(NC(=O)COc2cc(C(F)(F)F)c3c(C)nn(C)c3n2)cc(OC)c1`, for which the RP-LC retention time is 1030 s.

As for `COc1ccc(Cl)cc1C(=O)Nc1cnc(N2CCCCC2)nc1`, the RP-LC retention time is 1070 s.

For `CC(C)C(=O)N1CCN(c2nc(CN3CCOCC3)cs2)CC1`, the RP-LC retention time came to 569 s.

Consider `COC(=O)c1ccc2c(=O)n(-c3cccc(C)c3)c(N3CCCC3)nc2c1`, for which the RP-LC retention time came to 953 s.

The compound `CCc1ccc(Oc2cc(N3CCC(C(=O)NCCC(C)C)CC3)ncn2)cc1` displayed an RP-LC retention time of 1040 s.

The compound `Cc1ccc(CNc2c(-c3cccc(Cl)c3)nc3ncccn23)cc1` came in with an RP-LC retention time of 901 s.

`O=C(NCc1cccs1)C1CCN(C(=O)c2cc(-c3ccncc3)n[nH]2)CC1` gave an RP-LC retention time of 572 s.

For `O=C(NCc1ccccn1)C1CCN(c2cc(N3CCCCC3)ncn2)CC1`, the RP-LC retention time was 558 s.

In turn, `Cc1nc(-c2cn(C)c3ncccc23)sc1C(=O)Nc1cc(F)cc(F)c1` had an RP-LC retention time of 1050 s.

As to `Cc1ccc(Cn2c(N3CCCC(C(=O)Nc4ccc(C)c(F)c4)C3)nc3ccsc3c2=O)cc1` (centres undefined), the RP-LC retention time stood at 1170 s.

`CC(C)c1ncc(CO)n1Cc1c(Cl)cccc1Cl`: the RP-LC retention time was 663 s.

`O=C(CN1CCc2[nH]c3c(F)c(Cl)ccc3c(=O)c2C1)NCc1ccc2c(c1)OCO2` showed an RP-LC retention time of 661 s.

The compound `CCc1nc2cc(N3CCC(C(=O)NCc4ccc(OC)cc4)CC3)cnc2nc1CC` yielded an RP-LC retention time of 833 s.

Compound `CCCOc1nc2ccccc2nc1N1CCCC(C(=O)NCC2CCCO2)C1` (centres undefined) yielded an RP-LC retention time of 1010 s.

Turning to `CC(C)Cc1nc(C2CN(C(=O)c3cnccn3)CC23CCCC3)no1` (centres undefined), the RP-LC retention time is 618 s.

`O=C(c1ccco1)N1CCN(S(=O)(=O)c2cc3c4c(c2)CCC(=O)N4CCC3)CC1` returned an RP-LC retention time of 690 s.

Regarding `Cn1ncc2c3ccccc3n(CC(=O)N3CCC(C(N)=O)CC3)c2c1=O`, the RP-LC retention time turned out to be 611 s.

For `O=c1ccn(-c2ccc(Cl)cc2)nc1-c1nc(-c2ccccc2)no1`, the RP-LC retention time turned out to be 938 s.

Regarding `O=C(N[C@H]1C[C@@H]2C[C@H]1CN2C(=O)c1ccccc1Cl)c1cccs1`, the RP-LC retention time was found to be 701 s.

In turn, `CN(C)c1nc2ncn3c(=O)n(CC(=O)NC4CCCCC4)nc3c2s1` displayed an RP-LC retention time of 663 s.

Compound `Cc1cccc(-c2noc(C3CCCN3C(=O)Nc3ccccc3F)n2)c1` (centres undefined) had an RP-LC retention time of 1020 s.

`O=C(NC1CCCC1)C1CCN(C(=O)C2Sc3ccccc3NC2=O)CC1` (centres undefined) yielded an RP-LC retention time of 697 s.

Regarding `Cc1ccccc1Cn1cc(-c2ccncc2)cc1C(=O)NCc1cccs1`, the RP-LC retention time was determined as 741 s.

Regarding `COc1ccc(Cl)cc1NC(=O)N1CCC(C(=O)Nc2nccs2)CC1`, the RP-LC retention time is 764 s.

`O=C1CCC2(C(=O)NCCc3ccccc3)CCCC=C2N1c1ccccc1` (centres undefined) yielded an RP-LC retention time of 808 s.

With `Cc1cccc(C(=O)Nc2ccc(N3CCN(C4CCCCC4)C3=O)nc2)c1`, the RP-LC retention time is 950 s.

Consider `O=C(Nc1ccccc1)c1cc(C2CC2)n2nccc2n1`, for which the RP-LC retention time turned out to be 957 s.

The compound `Cc1nc2cccnc2n1C1CCN(C(=O)c2cccc(Cl)c2)C1` (centres undefined) showed an RP-LC retention time of 602 s.

`CCc1nc2cc(N3CCC(C(=O)NC(C)c4ccc(OC)cc4)CC3)cnc2nc1CC` (centres undefined) had an RP-LC retention time of 868 s.

In turn, `Cc1ccc(CNC(=O)Cn2cccc2-c2nc(-c3ccccc3)cs2)o1` showed an RP-LC retention time of 1050 s.

In the case of `COc1ccccc1CNC(=O)c1cn2c(n1)CCCC2`, the RP-LC retention time was 589 s.

Compound `COC(=O)N1CCN(Cc2cccc(NC(=O)Nc3ccc(C)nc3)c2F)CC1` returned an RP-LC retention time of 577 s.

`N#Cc1ccc(C(=O)Nc2ccc(-c3nnc4n3CCCC4)cc2)cc1` yielded an RP-LC retention time of 643 s.

Values taken from the METLIN SMRT retention time set (Domingo-Almenara et al. 2019).
